The values below come from patent US7767842B2, “Class of γδ T cells activators and use thereof” (Innate Pharma SA, priority 2002, dated 2010).

Like-named read-outs stand apart in the source and are kept apart here.

Broadly, the EC50 is the midpoint of the concentration-response curve.

The test system of assay [1] is primary polyclonal human Vγ9Vδ2 T cells. Put plainly: Cytokine release assay: TNFα release from γδ T cells. Format: cell-based. The protocol:
Cells (primary polyclonal human Vγ9Vδ2 T cells which have been expanded in vitro and stored frozen at day 12-15 of expansion) are thawed and rinsed twice and centrifuged. Upon elimination of supernatant and resuspension of cells, the cells are incubated for 24 h at 37° C. in the presence of IL2 100 IU/ml (final concentration). The cells are washed and centrifuged, following which the supernatant is eliminated and the cells are resuspended and adjusted to the adequate final concentration. The cells are added to the wells of a 96-well plate.
To one row of wells is added a standard dilution series of […] (BrHPP). Compounds to be tested, in this case (E)-4-hydroxy-3-methyl-2-butenyl pyrophosphate (HDMAPP) and the N-HDMAPP compound of the invention are added to experimental wells, after several dilutions.
Full plates are incubated 24 hours at 37° C. for stimulation of the γδ cells with the test compound and reference compounds, in this case N-HDMAPP, BrHPP and HDMAPP, as further described below. After this time, 100 μl of culture supernatant is taken for TNFα dosage. Measurement of the released TNFα dosage is performed as described by the manufacturer's instruction in the TNFα enzyme immunoassay kit (ref. 11121, Immunotech—Beckman Coulter). OD at 405 nm is read, the OD being proportional to the concentration of released TNFα in the culture supernatant. The data are processed with the Excel software to compare concentration of test compound versus concentration of TNFα and for the calculation of the EC50 for each test compound.
The bioactivity of the compound N-HDMAPP was assessed using a TNFα release assay as described above. Compounds BrHPP and HDMAPP were included for purpose of comparison. […] As will be appreciated, any other suitable assays such as cell amplification may be used in assessing compounds.

The next assay concerns γδ T cells. Particulars: at best; Wilhelm et al., 2003; cited from earlier work.
[2] abbreviates: 24 hours stimulation at 37° C., TNFα enzyme immunoassay, relative screening test, read-out: in vitro EC50, TNFα release.

Regarding `C/C(=C\COP(=O)(O)OP(=O)(O)O)CO` [HDMAPP, (E)-4-hydroxy-3-methyl-2-butenyl pyrophosphate], the EC50 in assay [1] (setting [2]) came out at 2.1 nM.

On to `CC(O)(CBr)CCOP(=O)(O)OP(=O)(O)O` (stereo not drawn) [BrHPP, 3-(bromomethyl)-3-butanol-1-yl-diphosphate], for which, in assay [1] (Homo sapiens, T-cell, prior assays, calibrated cells, read-out: EC50 in prior assays with calibrated cells using a BrHPP-standard composition), the EC50 was roughly 15 nM.

`NCCC(O)(P(=O)(O)O)P(=O)(O)O` [pamidronate]: in the assay with γδ T cells, the “increase in γδ T cell count” value is no more than 2 fold.

As to “(E)-4-hydroxy-3-methylbut-2-enyl pyrophosphoramidate [N-HDMAPP]”, in assay [1] (setting [2]), the EC50 was 0.63 nM. In assay [1] (maximum level, FIG. 1), the “maximum TNFα release” value is listed as “over 1800 pg/ml”. Moreover, the “increased potency over the most potent compounds tested so far” value in assay [1] (ratio of EC50, TNFα release) is recorded as 3-4.
